Here are results for three compounds from article PMC11050087, “Polyphenols from Maackia amurensis Heartwood Protect Neuronal Cells from Oxidative Stress and Prevent Herpetic Infection” (International Journal of Molecular Sciences, 2024).

Where “and” joins values, the source holds several entries; their conditions need not be identical. Equal values may be shown once. Read-outs that look alike come from different tables or passages of the source.

The test system of assay [1] is HSV-1. As to the kind of experiment: Treatment of virus-infected cells with polyphenols, CPE inhibition assay. The assay is classed as cell-based, HSV-1 strain L2. The method, then:
In order to study the mechanism of action of these compounds, two additional schemes of treatment of the virus and Vero cells with polyphenols were applied: the compounds were added before virus infection (pretreatment of cells) and after penetration of the virus into host cells (treatment of infected cells). The fourth method of exposure where the virus and polyphenols were added to cells simultaneously (simultaneous treatment) was previously described by us in [22]. The anti-HSV-1 activity of polyphenols was assessed using the cytopathic effect inhibition (CPE) assay.
The monolayer of cells was infected with the virus (100 TCID50/mL) at 37 °C for 1 h, and then the cells were washed with PBS (Sigma, Saint-Louis, MO, USA) and treated with different concentrations of the studied compounds and incubated until CPE appeared.

In assay [2] the test system is HSV-1. Also on record: method as in PMID 36985562. Particulars: ref [22], cited from earlier work.
The test system of assay [3] is 6-OHDA-treated Neuro-2a cells. The assay is described as follows: Mitochondrial membrane potential detection (TMRM) in 6-OHDA-treated cells. The assay is classed as cell-based, murine. Particulars: compound 10 µM, 6-OHDA 120 µM. The method, then:
We determined the effect of polyphenolic compounds from M. amurensis on 6-OHDA-induced mitochondrial dysfunction in Neuro-2a cells (Figure 6a,b).
Figure 6 The effect of polyphenolic compounds isolated from M. amurensis heartwood on mitochondrial membrane potential in Neuro-2a cells treated with 6-OHDA (120 μM) (a,b). Polyphenolic compounds isolated from M. amurensis heartwood were used at concentrations 10, 1, 0.1 μM. The data are presented as means ± SEM of three independent replicates. (*) and (***) indicate, respectively, p < 0.05 and p < 0.001 versus 6-OHDA-treated cells.
The cells were incubated for 1 h in a 96-well plate (1 × 10^4 cells/well) with polyphenolic compounds (0.1, 1 and 10 µM). Then, 6-OHDA (120 µM) was added, and cell suspension was incubated for 1 h. Cells incubated without 6-OHDA and compounds and with 6-OHDA alone were used as positive and negative control, respectively. The tetramethylrhodamine methyl (TMRM) (Sigma-Aldrich, St. Louis, MO, USA) solution (500 nM) was added to each well and cells were incubated for 30 min at 37 °C. The intensity of fluorescence was measured using a PHERAstar FSplate reader (BMG Labtech, Ortenberg, Germany) at λex = 540 nm and λem = 590 nm. The data were processed by MARS Data Analysis v. 3.01R2 (BMG Labtech, Ortenberg, Germany).

Assay [4] deals with HSV-1. As to the kind of experiment: Virucidal activity, RT-PCR assay (HSV-1 pretreated with compounds). The assay is classed as cell-based, HSV-1 strain L2. Particulars: for Ct: 72 h; for log10: log10 of 2^−ΔCt; for 2^−ΔCt: relative level of viral DNA vs virus control; for −ΔCt: vs virus control. The method, then:
Vero cells grown on 96-well plates were infected with the virus (100 TCID50/mL), pretreated with polyphenolic compounds at concentrations 0.1, 1 and 10 μg/mL. After 72 h of cell incubation, viral DNA was extracted from the supernatants, and the relative level of HSV-1 DNA was determined using RT-PCR. The effect of polyphenols on the relative level of viral DNA was assessed using the 2^−∆Ct method and reported as fold reduction compared to virus control.
(§1) The HSV-1 strain L2 obtained from N.F. Gamaleya Federal Research Centre for Epidemiology and Microbiology (Moscow, Russia) was grown in Vero cells as previously described.
(§2) We determined the direct inhibitory effect of polyphenolic compounds from M. amurensis heartwood on HSV-1 (virucidal effect). We mixed the virus at an infectious dose (100 TCID50/mL) with polyphenolic compounds (from 0.1 to 100 µg/mL) at a ratio of 1:1 (v/v) and incubated for an hour at 37 °C. Then, we infected the monolayer of Vero cells grown on 96-well plates (1 × 10^4 cells/well) with HSV-1 pretreated with the studied compounds. After 1 h adsorption at 37 °C, the cells were washed with phosphate-buffered saline (PBS) and overlaid by the maintenance medium with 1% FBS. The plates were incubated for 72 h at 37 °C in a CO2-incubator. The cytopathic effect (CPE) inhibition assay and real-time reverse transcription-PCR (RT-PCR) assay were used to evaluate virucidal effect of the tested compounds.
We performed the RT-PCR assay as we previously described in detail in [22]. Briefly, HSV-1 DNA was extracted after incubation from cell supernatants by using the DNA-sorb-AM (K1-12-100-CE) nucleic acid extraction kit (AmpliSens®, Moscow, Russia) according to the manufacturer′s instructions. We treated the supernatants with a lysis solution that contained guanidine chloride (chaotropic agent) in the presence of sorbent (silica particles). As the elution solution was added, the DNA was […] silica particles and separated from the sorbent particles by centrifugation.
We detected the DNA of HSV-1 in the obtained samples using the AmpliSens® HSV I, II-FRT-100F PCR kit (AmpliSens®, Moscow, Russia) on a real-time PCR instrument Rotor-Gene Q (Qiagen, Hilden, Nordrhein-Westfalen, Germany) according to the manufacturer′s instructions. The PCR reaction conditions were the following: initial denaturation at 95 °C for 15 min; then 5 cycles at 95 °C for 5 s, at 60 °C for 20 s, at 72 °C for 15 s; then 40 cycles at 95 °C for 5 s, at 60 °C for 20 s, and at 72 °C for 15 s. A negative sample was used as the amplification control for each run. The threshold cycle number Ct, was measured as the PCR cycle, where the amount of the amplified target reached the threshold value; the Ct values ≥ 37 indicated the absence of the HSV-1 DNA in the samples. We assessed the anti-HSV-1 activity of the studied compounds by the reduction in the viral DNA levels using the 2^−ΔCt method according to Equation (2):(2) ΔCt=Ctcv−Cttv where Ct is the threshold cycle number measured as the PCR cycle, where the amount of the amplified target reached the threshold value, […]

Assay [5] deals with HSV-1. The assay is described as follows: Virucidal activity, CPE inhibition assay (HSV-1 pretreated with compounds). The assay is classed as cell-based, HSV-1 strain L2. The method, then:
The antiviral activity of polyphenols from M. amurensis against HSV-1 was assessed using the cytopathic effect inhibition (CPE) assay. To study the inhibitory effect of polyphenolic compounds directly on the HSV-1 virus (direct virucidal activity), the monolayer of Vero cells grown on 96-well plates (1 × 10^4 cells/well) was infected with the virus (100 TCD50/mL), pretreated with different concentrations of polyphenolic compounds.
as §1, §2
We previously described this method in detail in [22]. We performed the MTT assay to evaluate the antiviral activity of polyphenolic compounds. The viral inhibition rate (IR, %) was calculated according to Equation (1):(1) IR, %=Atv−Acv/Acd−Acv×100, where Atv is the absorbance of cells infected with HSV-1 pretreated with the studied compounds,
We calculated the selectivity index (SI) as the ratio of CC50 to IC50. Experiments were repeated three times.

Assay [6] deals with 6-OHDA-treated Neuro-2a cells. As to the kind of experiment: 6-OHDA-induced neurotoxicity model, cell viability test (MTT). It counts as cell-based, murine. Particulars: compounds at 10, 1, 0.1 µM; 6-OHDA 100 µM. The method, then: Neuro-2a cells were incubated with the studied polyphenolic compounds for 1 h. Then, 100 µM of 6-hydroxydopamine 6-OHDA were added. We determined the percentage of living Neuro-2a cells after treatment with 6-OHDA (Figure 4a–d).
Figure 4 The effect of polyphenolic compounds isolated from M. amurensis heartwood on the viability of Neuro-2a cells treated with 6-OHDA (100 μM) (a–d). The viability of Neuro-2a cells treated with various compounds and 6-OHDA was measured by the MTT assay. Polyphenolic compounds isolated from M. amurensis heartwood were used at concentrations 10, 1, 0.1 μM. The data are presented as means ± SEM of three independent replicates. (*) indicate p < 0.05 versus 6-OHDA-treated cells.
After 24 h of adhesion, Neuro-2a cells (5 × 10^4 cells/mL) were treated with polyphenolic compounds at concentrations of 0.1, 1 and 10 μM for 1 h. Then, 100 µM of 6-OHDA or 1 mM of PQ (Sigma-Aldrich, St. Louis, MO, USA) were added. Cells incubated without inductors or with inductors were used as positive and negative control, respectively. Cell viability was measured after 24 h using the MTT assay.

Assay [7] concerns 6-OHDA-treated Neuro-2a cells. As to the kind of experiment: ROS analysis in 6-OHDA-treated cells (H2DCF-DA). It counts as cell-based, murine. Particulars: compound 0.1 µM. The method, then:
We studied the effect of polyphenolic compounds set on ROS levels in 6-OHDA-treated Neuro-2a cells (Figure 5a–d).
Figure 5 The effect of polyphenolic compounds isolated from M. amurensis heartwood on ROS levels in Neuro-2a cells treated with 6-OHDA (120 μM) (a–d). Polyphenolic compounds isolated from M. amurensis heartwood were used at concentrations 10, 1, 0.1 μM. The data are presented as means ± SEM of three independent replicates.
After 24 h of adhesion, Neuro-2a cells (5 × 10^4 cells/mL) were incubated with polyphenolic compounds at concentrations of 0.1, 1, and 10 µM for 1 h. Then, 120 µM of 6-OHDA or 1 mM of PQ were added to each well, and cells were incubated for 1 h. To study the ROS formation, 20 µL of 2,7-dichlorodihydrofluorescein diacetate solution (H2DCF-DA, Sigma-Aldrich, St. Louis, MO, USA) were added to each well, so that the final concentration was 10 µM. Then, the microplate was incubated for 30 min at 37 °C.

In assay [8] the test system is 6-OHDA-treated Neuro-2a cells. The assay is described as follows: Apoptosis profile by flow cytometry (Annexin V & Dead Cell Kit). Particulars: Table 1; polyphenols 10 µM, 6-OHDA 100 µM, 24 h; mean. It counts as cell-based, murine. The method, then: We investigated the effect of polyphenolic compounds from M. amurensis on apoptosis profile in 6-OHDA-treated Neuro-2a cells by flow cytometry using fluorescent annexin V conjugate as a fluorescent dye. We observed significant changes in apoptosis profile in Neuro-2a cells after 6-OHDA-treatment. […] Polyphenols 3, 6 and 13 diminished the neurotoxic effect of 6-OHDA-treatment.
The cells were incubated for 1 h in a 6-well plate (5 × 10^4 cells/mL) with polyphenolic compounds (10 µM). Then, 6-OHDA (100 µM) was added, and cell suspension was incubated for 24 h. After incubation, the maintenance media was collected, and the cells were washed by cold PBS twice and incubated with trypsin-EDTA solution. The cell suspension was washed with cold PBS twice again, centrifugated and then used for apoptosis detection by Muse® Annexin V & Dead Cell Kit in accordance with the manufacturer’s instructions (Luminex, Austin, TX, USA). The fluorescence was measured with Muse® Cell Analyzer (Luminex, Austin, TX, USA) and the data were processed by Muse 1.5 Analysis software (Luminex, Austin, TX, USA).
A general note: In flow cytometry, cells or beads pass a laser one at a time.

As to `Nc1nc2c(ncn2COCCO)c(=O)[nH]1` [Acyclovir, reference compound], the concentration for half-maximal inhibition (IC50) was 0.4 µg/mL and 1.8 µM in the assay on HSV-1 [1] (Human alphaherpesvirus 1, compound added after virus adsorption and penetration, CPE assay); 9.3 ± 1.3 µM in the assay on HSV-1 [2] (virus and compound added to cells simultaneously, CPE assay, read-out: Simultaneous Treatment IC50). Moreover, the “Treatment of Infected Cells SI” value in the assay on HSV-1 [1] (ratio of CC50 to IC50) was greater than 2500. In addition, the “Simultaneous Treatment SI” value with HSV-1 [2] (ratio of CC50 to IC50) is recorded as 430. For the same compound, the “Simultaneous Treatment IC50” value in the assay with HSV-1 [2] (virus and compound added to cells simultaneously, CPE assay) was 2.1 ± 0.3 µg/mL.
In the case of medicarpin [Compound 7], the “increase of mitochondrial membrane potential” value in assay [3] (TMRM) is reported as 8–12%. In the assay with HSV-1 [4] (0.1 µg/mL), the Ct came to 18.1 ± 2.2, the log10 was found to be 0, the “2^−ΔCt” value was determined as 1.0 and the “−ΔCt” value was 0. Also, in the assay with HSV-1 [4] (1 µg/mL), the Ct is given as 18.3 ± 2.2, the log10 was −0.060 ± 0.008, the “2^−ΔCt” value turned out to be 0.870 ± 0.11 and the “−ΔCt” value was −0.20 ± 0.02. Moreover, in the assay with HSV-1 [4] (10 µg/mL), the “anti-HSV-1 activity by RT-PCR (in words)” value is recorded as “moderate anti-HSV-1 activity”, the Ct was 19.8 ± 2.4, the log10 was −0.50 ± 0.06 and the “2^−ΔCt” value came to 0.297 ± 0.04. In addition, the “−ΔCt” value in the assay on HSV-1 [4] (10 µg/mL) is −1.75 ± 0.20. Moreover, the SI with HSV-1 [5] (ratio of CC50 to IC50, virucidal scheme) turned out to be 2.1 ± 0.3. The “effect on viability of 6-OHDA-treated Neuro-2a cells (in words)” value in assay [6] is on record as “weak effect on cell viability”.
For retusin [Compound 3], the “inhibition of ROS formation in 6-OHDA-treated Neuro-2a cells (in words)” value in assay [7] is reported as “considerably inhibited ROS formation”. Moreover, the “effect on mitochondrial membrane potential (in words)” value in assay [3] is recorded as “weak activity”. For the same compound, the “virucidal activity against HSV-1 by RT-PCR (in words)” value with HSV-1 [4] (0.1, 1 and 10 µg/mL) is recorded as “did not demonstrate virucidal activity”. Moreover, the “virucidal activity against HSV-1 (in words)” value in the assay with HSV-1 [5] (CPE assay, virus pretreated with compound) is “did not show virucidal activity”. Also, in assay [8], the Dead is 1.18 ± 0.24%, the Early apop. stood at 19.63 ± 0.79 %, the “Late apop./Dead” value stood at 11.31 ± 0.49% and the Live was determined as 67.89 ± 1.52 %.

For orientation: IC50 means the concentration that inhibits the measured activity by half.
